Reference: patent US7271171B2, “Adenosine A3 receptor modulators” (King Pharmaceuticals Research and Development, Inc., priority 1998, dated 2007)
Like-named read-outs stand apart in the source and are kept apart here.

Tests used:
rA1 adenosine receptor [1] = target: T1, rA1 adenosine receptor (Rattus norvegicus, UniProt P25099); conditions: values taken from Kim et al., J. Med. Chem. 1996; cited from earlier work
T1 construct: membranes of rat brain (150-200 μg- of protein/assay); from tissue; host or cells: whole brain of male Wistar rats
T1 sequence (P25099 1-326): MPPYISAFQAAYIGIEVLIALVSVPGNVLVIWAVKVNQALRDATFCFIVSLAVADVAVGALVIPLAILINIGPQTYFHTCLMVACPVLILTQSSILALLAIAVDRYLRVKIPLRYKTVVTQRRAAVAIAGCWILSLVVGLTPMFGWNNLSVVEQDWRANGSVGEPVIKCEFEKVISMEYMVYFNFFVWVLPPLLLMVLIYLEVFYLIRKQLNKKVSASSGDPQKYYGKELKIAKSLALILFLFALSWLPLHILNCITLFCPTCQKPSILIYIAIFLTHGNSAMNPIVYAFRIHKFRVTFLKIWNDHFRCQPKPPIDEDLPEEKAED

rA2A adenosine receptor [2] = target: T2, rA2A adenosine receptor (Rattus norvegicus, UniProt P30543); conditions: values taken from Kim et al., J. Med. Chem. 1996; cited from earlier work
T2 construct: membranes of rat striatum (80-100 μmg of protein/assay); from tissue; host or cells: striatum of male Wistar rats

adenosine A3 receptor = target: T3, adenosine A3 receptor (Homo sapiens, UniProt P0DMS8); assay: Adenylate cyclase assay: block of agonist-induced inhibition of cAMP production; type: biochemical; conditions: FIG. 2, comparison in words
T3 construct: expressed in transfected cells; host or cells: CHO
T3 sequence (P0DMS8 1-318): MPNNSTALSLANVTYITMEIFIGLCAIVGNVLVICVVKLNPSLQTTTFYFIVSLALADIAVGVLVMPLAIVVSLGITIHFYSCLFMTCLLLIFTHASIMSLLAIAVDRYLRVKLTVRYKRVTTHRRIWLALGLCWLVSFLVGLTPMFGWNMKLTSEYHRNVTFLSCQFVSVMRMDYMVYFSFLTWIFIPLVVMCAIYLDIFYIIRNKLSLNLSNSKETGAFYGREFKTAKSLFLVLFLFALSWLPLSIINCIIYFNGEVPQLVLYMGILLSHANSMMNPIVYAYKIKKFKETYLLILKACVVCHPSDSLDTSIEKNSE
Protocol: (§1) The expression of the human A1, A2A, A2B and A3 receptors in CHO cells has been previously described (Klotz et al., 1998). The cells are grown adherently and maintained in Dulbecco's modified Eagle's medium with nutrient mixture F12 without nucleosides at 37 ° C. in 5% CO2/95% air. Cells are split two or three times weekly and then the culture medium is removed for membrane preparations. The cells are washed with phosphate-buffered saline and scraped off flasks in ice cold hypotonic buffer (5 mM Tris HCl, 2 mM EDTA, pH 7.4). The cell suspension is homogenized with Polytron and the homogenate is centrifuged for 30 min. at 48,000 g. The membrane pellet is re-suspended in 50 mM Tris HCl buffer at pH 7.4 for A1 adenosine receptors, in 50 mM Tris HCl, 10 mM MgCl2 at pH 7.4 for A2A adenosine receptors, in 50 mM Tris HCl, 10 mM MgCl2, 1 mM EDTA at pH 7.4 for A3 adenosine receptors and are utilized for binding and adenylate cyclase assays.
Membrane preparation is suspended in 0.5 mL of incubation mixture (50 mM Tris HCl, MgCl2 10 mM, EDTA, 1 mM, pH 7.4) containing GTP 5 µM, 0.5 mM 4-(3-buthoxy-4-methoxybenzyl)-2-imidazolidinone (Ro 20-1274) as phosphodiesterase inhibitor, 2.0 IU/mL adenosine deaminase and pre-incubated for 10 min. in a shaking bath at 37° C. […]

[3] = target: T4, human recombinant A2A adenosine receptors (Homo sapiens, UniProt P29274); assay: Human cloned A2A receptor binding, [3H]-SCH58261, CHO cells; conditions: read-out: hA2A (Ki)
T4 construct: expressed in transfected cells; host or cells: CHO
Protocol: as §1
(§2) Displacement experiments are performed for 120 min. at 25° C. in 0.20 mL of buffer containing 1 nM [^3H]-DPCPX, 20 μL of diluted membranes (50 μg of protein/assay) and at least 6-8 different concentrations of examined compounds. Non-specific binding is determined in the presence of 10 μM of CHA and this is always 10% of the total binding. Binding of [^3H]-SCH58261 to CHO cells transfected with the human recombinant A2A adenosine receptors (50 μg of protein/assay) was performed according to Varani et al. (Varani, K; Cacciari, B.; Baraldi, P. G.; Dionisotti, S.; Ongini, E.; Borea, P. A., “Binding affinity of adenosine receptor agonists and antagonists at human cloned […] adenosine receptors,” Life Sci., 63, 81-87, 1998). In competition studies, at least 6-8 different concentrations of compounds are used and non-specific binding is determined in the presence of 50 μM NECA for an incubation time of 60 min. at 25° C.

[4] = target: T5, human recombinant A1 adenosine receptor (Homo sapiens, UniProt P30542); assay: Human cloned A1 receptor binding, [3H]-DPCPX, CHO cells; conditions: read-out: hA1 (Ki)
T5 construct: expressed in transfected cells; host or cells: CHO
T5 sequence (P30542 1-326): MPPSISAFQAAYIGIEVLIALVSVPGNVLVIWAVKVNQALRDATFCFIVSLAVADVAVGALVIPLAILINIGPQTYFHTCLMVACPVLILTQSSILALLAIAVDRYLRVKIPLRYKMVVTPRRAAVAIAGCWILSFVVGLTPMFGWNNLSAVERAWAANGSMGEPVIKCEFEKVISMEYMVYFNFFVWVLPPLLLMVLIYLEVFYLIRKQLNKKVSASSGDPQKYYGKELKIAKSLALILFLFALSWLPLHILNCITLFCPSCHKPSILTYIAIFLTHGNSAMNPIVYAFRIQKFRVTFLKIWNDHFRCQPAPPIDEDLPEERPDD
Protocol: as §1
Binding of [^3H]-DPCPX to CHO cells transfected with the human recombinant A1 adenosine receptor is performed according to the method previously described by Klotz and coworkers (Klotz, K. N.; Cristalli, G.; Grifantini, M.; Vittori, S.; Lohse, M. J., “Photoaffinity labeling of A1 adenosine receptors,” J. Biol. Chem., 260, 14659-14664, 1985).
as §2

[5] = target: T6, human recombinant A2B adenosine receptors (Homo sapiens, UniProt P29275); assay: Human cloned A2B receptor binding, [3H]-DPCPX, HEK-293 cells; conditions: read-out: hA2B (Ki)
T6 construct: host or cells: HEK-293
T6 sequence (P29275 1-332): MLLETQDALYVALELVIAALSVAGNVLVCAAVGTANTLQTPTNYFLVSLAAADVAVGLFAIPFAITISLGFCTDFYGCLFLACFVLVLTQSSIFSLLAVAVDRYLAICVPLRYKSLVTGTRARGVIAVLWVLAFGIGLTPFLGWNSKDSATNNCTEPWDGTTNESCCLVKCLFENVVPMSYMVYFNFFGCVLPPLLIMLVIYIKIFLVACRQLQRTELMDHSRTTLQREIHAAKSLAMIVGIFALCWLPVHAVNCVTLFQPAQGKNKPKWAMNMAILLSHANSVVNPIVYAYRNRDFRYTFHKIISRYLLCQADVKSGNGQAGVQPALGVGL
Protocol: Binding of [^3H]-DPCPX to HEK-293 cells (Receptor Biology, Inc., Beltsville, Md.) transfected with the human recombinant A2B adenosine receptors is performed essentially to the method described by Varani and coworkers (Mol. Pharmacol.). In particular, assays are carried out for 60 min. at 25° C. in 0.1 mL of 50 mM Tris HCl Buffer, 10 mM MgCl2, 1 mM EDTA, 0.1 mM benzamidine pH 7.4, 2 IU/ml adenosine deaminase containing 40 nM [^3H]-DPCPX, diluted membranes (20 µg of protein/assay) and at least 6-8 different concentration of tested compounds. Non-specific binding is determined in the presence of 100 μM of NECA and is always 30% of the total binding.

SKN-SH cell membranes = assay: [125I]-ABMECA binding on tumor cell line membranes; conditions: 0.5 nM radioligand
Protocol: (§3) A series of binding experiments were performed on various tumor cell lines, using 0.5 nM [^125I]-ABMECA, with unspecific binding determined in the presence of 50 μM R-PIA or 200 μM NECA, on cell membranes of the cell lines. Specific binding was determined by substracting unspecific binding from total binding. The cell lines were the HL 60, NB4, SKN-MC, SKN-Be2C, SKN-SH and JURKAT cell lines.

SKN-Be2C cell membranes = assay: [125I]-ABMECA binding on tumor cell line membranes; conditions: 0.5 nM radioligand
Protocol: as §3

SKN-MC cell membranes = assay: [125I]-ABMECA binding on tumor cell line membranes; conditions: 0.5 nM radioligand
Protocol: as §3

NB4 cell membranes = assay: [125I]-ABMECA binding on tumor cell line membranes; conditions: NB4, 0.5 nM radioligand
Protocol: as §3

JURKAT cell membranes = assay: [125I]-ABMECA binding on tumor cell line membranes; set-up: species or system human; conditions: 0.5 nM radioligand
Protocol: as §3

HL 60 cell membranes = assay: [125I]-ABMECA binding on tumor cell line membranes; set-up: species or system human; conditions: HL 60, 0.5 nM radioligand
Protocol: as §3

[6] = target: T7, A3 receptor in Jurkat cell membranes (Homo sapiens, UniProt P0DMS8)
T7 sequence (P0DMS8 1-318): T3 sequence (P0DMS8 1-318)

[7] = target: T8, human A3 receptors expressed in HEK 293 cells (Homo sapiens, UniProt P0DMS8); conditions: saturation curve, FIG. 1, n=3
T8 sequence (P0DMS8 1-318): T3 sequence (P0DMS8 1-318)

[8] = target: T9, human recombinant A3 adenosine receptor (Homo sapiens, UniProt P0DMS8); assay: Human cloned A3 adenosine receptor binding assay, [125I]AB-MECA, HEK-293 membranes; set-up: USA; host or cells: HEK-293
T9 sequence (P0DMS8 1-318): T3 sequence (P0DMS8 1-318)

rA2A adenosine receptor [9] = target: T2, rA2A adenosine receptor; assay: Rat A2A adenosine receptor binding assay, [3H]SCH58261 displacement, rat striatum membranes; conditions: rat striatum membranes, [3H]SCH58261; read-out: rA2A (Ki)
Protocol: (§4) Male Wistar rats (200-250 g) were decapitated and the whole brain and striatum dissected on ice. […] The homogenate was centrifuged at 48,000 for 10 min, and the pellet was resuspended in the same buffer containing 2 IU/mL adenosine deaminase. After 30 min incubation at 37° C., the membranes were centrifuged and pellets were stored at −80° C. Prior to freezing, an aliquot of homogenate was removed for protein assay with bovine albumin as reference standard. Binding assays were performed on rat brain and striatum membranes respectively, in the presence of 10 mM MgCl2 at 25° C.
(§5) Separation of bound from free radio ligand was performed by rapid filtration through Whatman GF/B filters which were washed three times with ice-cold buffer. Filter bound radioactivity was measured by scintillation spectrometry after addition of 5 mL of Aquassure. […] Ki values were calculated from the Cheng-Prusoff equation. All binding data were analyzed using the nonlinear regression curve-fitting computer program LIGAND.

rA1 adenosine receptor [10] = target: T1, rA1 adenosine receptor; assay: Rat A1 adenosine receptor binding assay, [3H]CHA displacement, rat brain membranes
Protocol: as §4, §5

Solubility in water = type: physicochemical

T4 sequence (P29274 whole entry): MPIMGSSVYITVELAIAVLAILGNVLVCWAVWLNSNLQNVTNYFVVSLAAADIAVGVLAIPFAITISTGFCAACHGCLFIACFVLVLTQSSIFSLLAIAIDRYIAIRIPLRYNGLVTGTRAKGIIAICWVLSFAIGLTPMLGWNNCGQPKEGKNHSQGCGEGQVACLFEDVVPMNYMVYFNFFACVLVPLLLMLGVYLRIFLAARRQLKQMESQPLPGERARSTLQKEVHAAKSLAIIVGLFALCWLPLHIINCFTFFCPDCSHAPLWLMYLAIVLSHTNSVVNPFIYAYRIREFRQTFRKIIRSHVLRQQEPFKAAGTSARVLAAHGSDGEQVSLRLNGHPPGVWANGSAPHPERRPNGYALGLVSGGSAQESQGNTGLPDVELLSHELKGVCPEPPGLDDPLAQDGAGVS
T2 sequence (P30543 whole entry): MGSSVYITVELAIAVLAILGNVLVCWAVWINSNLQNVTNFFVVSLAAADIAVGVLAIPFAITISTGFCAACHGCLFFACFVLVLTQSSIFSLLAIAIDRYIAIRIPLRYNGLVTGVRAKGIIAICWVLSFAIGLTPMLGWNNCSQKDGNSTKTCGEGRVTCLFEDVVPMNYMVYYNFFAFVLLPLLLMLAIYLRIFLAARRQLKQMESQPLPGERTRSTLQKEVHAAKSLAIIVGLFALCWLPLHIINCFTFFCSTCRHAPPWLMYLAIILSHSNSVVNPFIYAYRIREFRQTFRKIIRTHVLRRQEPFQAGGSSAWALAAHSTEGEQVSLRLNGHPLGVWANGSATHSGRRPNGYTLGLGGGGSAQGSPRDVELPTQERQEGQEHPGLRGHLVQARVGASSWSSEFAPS

Which results are given for `O=C(Cc1ccccc1)Nc1nc2ccc(Cl)cc2c2nc(-c3ccco3)nn12` [MRS 1220]?
Ki (rA1 adenosine receptor [1]): 305 ± 51 nM; Ki (rA2A adenosine receptor [2]): 52 ± 8.8 nM

With `Cn1cc2c(nc(NC(=O)Nc3ccncc3)n3nc(-c4ccco4)nc23)n1` [Compound 106, N-[2-(2-furyl)-8-methyl-8H-pyrazolo[4,3-e][1,2,4]triazolo[1,5-c]pyrimidin-5-yl]-N′-pyridin-4-yl urea] as the compound, how does the “potency of adenosine A3 antagonism (block of C1-IB-MECA induced inhibition of cAMP production)” value (adenosine A3 receptor) read?
The value was “comparable”.

What about the Ki [3] of the same compound?
The Ki was 60 nM.

And the Ki [4]?
Its Ki is 250 nM.

What about the Ki [5] of the same compound?
Its Ki is 200 nM.

Which “Percent Specific Binding” value (SKN-SH cell membranes) does the source give for `CNC(=O)[C@H]1O[C@@H](n2cnc3c(NCc4ccc(N)c([125I])c4)ncnc32)[C@H](O)[C@@H]1O` [[^125I]AB-MECA, [^125I]N^6-(4-amino-3-iodobenzyl)adenosine-5′N-methyluronamide] here?
The value was 3%.

What about the “Specific Binding (cpm)” value (SKN-SH cell membranes) of the same compound?
The value was 91 cpm.

And the “Percent Specific Binding” value (SKN-Be2C cell membranes)?
Its value is 24%.

What about the “Specific Binding (cpm)” value (SKN-Be2C cell membranes) of the same compound?
Its value is 1415 cpm.

And the “Percent Specific Binding” value (SKN-MC cell membranes)?
Its value is 17%.

What about the “Specific Binding (cpm)” value (SKN-MC cell membranes) of the same compound?
The value was 1308 cpm.

What about the “Percent Specific Binding” value (NB4 cell membranes) of the same compound?
The value was 19%.

What about the “Specific Binding (cpm)” value (NB4 cell membranes) of the same compound?
Its value is 637 cpm.

And the “Percent Specific Binding” value (JURKAT cell membranes)?
The value was 38%.

What about the “Specific Binding (cpm)” value (JURKAT cell membranes) of the same compound?
The value was 2846 cpm.

What about the “Percent Specific Binding” value (HL 60 cell membranes) of the same compound?
Its value is 20%.

What about the “Specific Binding (cpm)” value (HL 60 cell membranes) of the same compound?
The value was 693 cpm.

What about the “Bmax (fmol/mg protein) / density of A3 receptor detected” value ([6]; FIG. 3) of the same compound?
Its value is “approximately 300 fmol/mg protein”.

What about the “Bmax (fmol/mg protein) / density of A3 receptor detected” value ([6]; FIG. 3, listed as [^125I]-ABMECA) of the same compound?
The value was 290 fmol/mg protein.

What about the Bmax value [7] of the same compound?
The Bmax value was 62±1 fmol/mg protein.

For `CC(C)CCn1cc2c(nc(NC(=O)Cc3ccccc3)n3nc(-c4ccco4)nc23)n1` [Compound 58, 5-[(Benzyl)carbonyl]amino-8-isopentyl-2-(2-furyl)-pyrazolo[4,3.e]1,2,4-triazolo[1,5-c]pyrimidine], which melting point is on record?
Its melting point is 144 to 145 °C.

And the Ki ([8]; HEK-293 membranes, [125I]AB-MECA, read-out: hA3 (Ki))?
Its Ki is 81.1 nM.

And the rA1/hA3 ([8]; selectivity ratio of Ki values)?
The rA1/hA3 was 4.6.

And the rA2A/hA3 ([8]; selectivity ratio of Ki values)?
Its rA2A/hA3 is 4.

And the Ki (rA2A adenosine receptor [9])?
The Ki was 323 nM.

What about the Ki (rA1 adenosine receptor [10]) of the same compound?
Its Ki is 373 nM.

Which “potency of adenosine A3 antagonism (block of C1-IB-MECA induced inhibition of cAMP production)” value (adenosine A3 receptor) does the source give for `Cl.Cn1cc2c(nc(NC(=O)Nc3ccncc3)n3nc(-c4ccco4)nc23)n1` [Compound 107, N-[2-(2-furyl)-8-methyl-8H-pyrazolo[4,3-e][1,2,4]triazolo[1,5-c]pyrimidin-5-yl]-N′-pyridin-4-ylurea hydrochloride] here?
The value was “comparable”.

And the Ki ([3]; hydrochloride)?
Its Ki is 100 nM.

What about the Ki ([4]; hydrochloride) of the same compound?
The Ki was 350 nM.

And the solubility in water (Solubility in water)?
The solubility in water was “soluble in water”.

What about the Ki ([5]; hydrochloride) of the same compound?
Its Ki is 250 nM.
